Laboratory results: the supplement of paper PMC10307832

Legend:
Assay in all cases: relative viability (nuclei count vs DMSO), 5 days (fraction); higher = more cells survive
[1] = compound: C1CN(CCC1C(C2=CC3=C(C=C2)OCO3)(C4=CC5=C(C=C4)OCO5)O)C(=O)OC6=CC=C(C=C6)[N+](=O)[O-] [JZL-184] + O=C(CCCCCCC(=O)Nc1ccccc1)NO [Vorinostat] (partner 1 µM)
Summary of the method: (§1)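 Values are medians from duplicate plates. Each reflects relative viability, defined as the nuclei count of treated wells over that of vehicle wells. Lung cancer cell lines in 1536-well plates were pin-tool dosed one day after seeding with one drug alone or with a fixed anchor-drug dose plus five library-drug doses (not always all listed) in √10 steps, then fixed, stained and imaged at 4× after 5 days.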

[2] = compound: C1CN(CCC1C(C2=CC3=C(C=C2)OCO3)(C4=CC5=C(C=C4)OCO5)O)C(=O)OC6=CC=C(C=C6)[N+](=O)[O-] [JZL-184] + O=C(c1cc(Cc2n[nH]c(=O)c3ccccc23)ccc1F)N1CCN(C(=O)C2CC2)CC1 [Olaparib] (partner 8 µM)
Summary of the method: as §1

[3] = compound: C1CN(CCC1C(C2=CC3=C(C=C2)OCO3)(C4=CC5=C(C=C4)OCO5)O)C(=O)OC6=CC=C(C=C6)[N+](=O)[O-] [JZL-184] + Nc1nc2[nH]cc(CCc3ccc(C(=O)N[C@@H](CCC(=O)O)C(=O)O)cc3)c2c(=O)[nH]1 [Pemetrexed] (partner 0.2 µM)
Summary of the method: as §1

[4] = compound: C1CN(CCC1C(C2=CC3=C(C=C2)OCO3)(C4=CC5=C(C=C4)OCO5)O)C(=O)OC6=CC=C(C=C6)[N+](=O)[O-] [JZL-184] + Nc1ncn([C@H]2C[C@H](O)[C@@H](CO)O2)c(=O)n1 [Decitabine] (partner 2 µM)
Summary of the method: as §1

[5] = compound: C1CN(CCC1C(C2=CC3=C(C=C2)OCO3)(C4=CC5=C(C=C4)OCO5)O)C(=O)OC6=CC=C(C=C6)[N+](=O)[O-] [JZL-184] + Cc1nc(NC(=O)N2CCC[C@H]2C(N)=O)sc1-c1ccnc(C(C)(C)C(F)(F)F)c1 [Alpelisib] (partner 2 µM)
Summary of the method: as §1

Cell Line | relative viability ([1]; first compound 0.04 µM) | relative viability ([1]; first compound 0.4 µM) | relative viability ([1]; first compound 1.265 µM) | relative viability ([1]; first compound 4 µM) | relative viability ([2]; first compound 0.04 µM) | relative viability ([2]; first compound 0.4 µM) | relative viability ([2]; first compound 1.265 µM) | relative viability ([2]; first compound 4 µM) | relative viability ([3]; first compound 0.04 µM) | relative viability ([3]; first compound 0.4 µM) | relative viability ([3]; first compound 1.265 µM) | relative viability ([3]; first compound 4 µM) | relative viability ([4]; first compound 0.04 µM) | relative viability ([4]; first compound 0.4 µM) | relative viability ([4]; first compound 1.265 µM) | relative viability ([4]; first compound 4 µM) | relative viability ([5]; first compound 0.04 µM) | relative viability ([5]; first compound 0.4 µM) | relative viability ([5]; first compound 1.265 µM) | relative viability ([5]; first compound 4 µM)
NCI-H441 | 0.793 | 1.02 | 0.784 | 0.697 | 0.714 | 0.473 | 0.659 | 0.463 | 0.277 | 0.248 | 0.239 | 0.285 | 0.237 | 0.249 | 0.188 | 0.281 | 1.11 | 0.634 | 0.755 | 1.09
HOP-62 | 0.659 | 0.601 | 0.706 | 0.612 | 0.49 | 0.328 | 0.529 | 0.507 | 0.331 | 0.312 | 0.306 | 0.309 | 0.249 | 0.197 | 0.233 | 0.214 | 1.13 | 1.05 | 1.05 | 0.96
RERF-LC-KJ | 0.707 | 0.642 | 0.699 | 0.614 | 0.976 | 0.911 | 0.895 | 0.905 | 0.496 | 0.463 | 0.468 | 0.44 | 0.854 | 0.706 | 0.808 | 0.56 | 0.753 | 0.761 | 0.837 | 0.804
HCC-44 | 1.28 | 1.05 | 1.13 | 1.06 | 1.04 | 0.98 | 0.97 | 0.928 | 0.708 | 0.621 | 0.688 | 0.64 | 1.05 | 0.942 | 0.964 | 0.99 | 0.671 | 0.8 | 0.749 | 0.74
LCLC-103H | 0.72 | 0.752 | 0.768 | 0.734 | 0.829 | 0.767 | 0.765 | 0.763 | 0.495 | 0.481 | 0.453 | 0.477 | 0.768 | 0.817 | 0.815 | 0.778 | 1.03 | 0.867 | 1.05 | 0.981
NCI-H1915 | 0.481 | 0.493 | 0.48 | 0.537 | 0.262 | 0.264 | 0.273 | 0.233 | 0.506 | 0.485 | 0.535 | 0.534 | 0.243 | 0.266 | 0.272 | 0.266 | 1.08 | 1.04 | 1.04 | 1.04
PC-14 | 0.848 | 0.722 | 0.758 | 0.661 | 0.251 | 0.223 | 0.233 | 0.219 | 0.126 | 0.128 | 0.15 | 0.114 | 0.343 | 0.199 | 0.198 | 0.241 | 0.975 | 0.892 | 0.965 | 0.847
